Earlier results as cited in patent US7645767B2, “Pharmaceutical compositions for treating chronic pain and pain associated with neuropathy” (Trinity Laboratories, Inc., priority 2006, dated 2010).

How the values were obtained:
[1] = for accumulation during multiple dose treatment: multiple dose treatment with tramadol
μ-opiate receptors = μ-opiate receptors (Homo sapiens, UniProt P35372)
[2] = system: complex regional pain syndrome and neuropathic pain

Chain of μ-opiate receptors (P35372 whole entry): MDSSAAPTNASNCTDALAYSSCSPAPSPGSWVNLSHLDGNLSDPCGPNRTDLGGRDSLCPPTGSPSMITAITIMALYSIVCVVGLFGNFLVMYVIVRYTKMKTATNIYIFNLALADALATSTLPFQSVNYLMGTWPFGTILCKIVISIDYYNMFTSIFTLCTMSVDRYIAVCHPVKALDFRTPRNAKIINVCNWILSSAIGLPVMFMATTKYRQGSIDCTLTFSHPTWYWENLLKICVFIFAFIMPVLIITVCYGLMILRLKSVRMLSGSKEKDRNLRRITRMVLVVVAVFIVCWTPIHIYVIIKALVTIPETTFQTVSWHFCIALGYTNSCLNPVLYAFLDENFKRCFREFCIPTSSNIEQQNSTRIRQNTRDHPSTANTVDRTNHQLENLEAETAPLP

For COc1cccc(C2(O)CCCCC2CN(C)C)c1 (racemic) [tramadol, (+/−)-trans (RR,SS)-2-[(dimethylamino)methyl]-1-(3-methoxyphenyl)cyclohexanol], the “time to peak serum concentrations” value ([1]; after oral administration) is listed as no more than 2 h, the “accumulation during multiple dose treatment” value [1] is listed as “approximately 2 fold” and the “affinity for μ-opiate receptors, fold less than codeine” value (μ-opiate receptors; relative to codeine) is listed as 10 fold. The “affinity for μ-opiate receptors, fold less than d-propoxyphene” value (μ-opiate receptors; relative to d-propoxyphene) was 100 fold, the “affinity for μ-opiate receptors compared with dextromethorphan” value (μ-opiate receptors; relative to dextromethorphan) was “equivalent” and the “affinity for μ-opiate receptors, fold less than morphine” value (μ-opiate receptors; relative to morphine) was 6,000 fold. The “duration of the analgesic effect” value (analgesic effect; after a single oral dose of tramadol 100 mg) was “about 6 hours”.

In the case of CN(C)C[C@H]1CCCC[C@]1(O)c1cccc(O)c1 [O-desmethyltramadol], the half-life ([1]; after a single oral dose of 100 mg tramadol, 2-compartmental elimination) is listed as 9 h, the “accumulation during multiple dose treatment” value [1] is listed as “approximately 2 fold” and the “analgesic potency compared with parent drug” value (analgesic effect; relative to tramadol) is listed as “at least twice”.

In the case of COc1cc(CNC(=O)CCCCC=CC(C)C)ccc1O [capsaicin, 8-methyl-N-vanillyl-6-nonenamide], the “absorption in the jejunum” value (oral dosing of rats, after 3 hours) is listed as 85%, the “time to distribution to brain, spinal cord, liver and blood” value (rats, i.v. administration) is listed as no more than 20 min and the “duration of sustained analgesia” value ([2]; capsaicin concentration 5-10% under regional anesthesia) is listed as 1 to 8 weeks. The “dropout rates due to burning pain at the site of application” value ([2]; topical capsaicin trials) was 33 to 67%.
